Drawing on US20100016547A1, “Glycosilated Peptide and Medicine Comprising It as an Effective Ingredient” (priority 2005, published 2010), this text covers EC50 and IC50 for nine compounds.

Test [1] concerns the target T1, GLP-1 receptor (Homo sapiens, UniProt P43220). Put plainly: Assay for production of cAMP.
Description: Assay for Production of cAMP
After stirring at room temperature for an hour, the cells were lysed with Triton X-100 (final concentration: 1%).
Quantity of cAMP was determined using cAMP Femtomolar Kit (CIS Bio International). The reaction solution (1 μL) was moved to a new 384-well plate and diluted by adding 9 μL of dilution buffer. Next, each 5 μL of cAMP-XL665 solution and anti-cAMP cryptate solution of the Kit was added, the mixture was incubated at room temperature for an hour, and time-resolved fluorescence was measured using RUBYstar (BMG LABTECH).
Test [2] deals with T1, GLP-1 receptor.
Description: After being incubated at room temperature for 2 hours, the solution was filtered through a unifilter 96GF/C plate (Perkin-Elmer) pretreated with 1% polyethylenimine containing 0.5% BSA, washed with 25 mM HEPES buffer solution (pH 7.4) containing 0.5% BSA, and radioactivity remained on the filter was measured by a gamma counter (Top Counter; Perkin-Elmer).

pEC50, pIC50: −log10 of the molar value.

T1 sequence (P43220 24-463, species assumed): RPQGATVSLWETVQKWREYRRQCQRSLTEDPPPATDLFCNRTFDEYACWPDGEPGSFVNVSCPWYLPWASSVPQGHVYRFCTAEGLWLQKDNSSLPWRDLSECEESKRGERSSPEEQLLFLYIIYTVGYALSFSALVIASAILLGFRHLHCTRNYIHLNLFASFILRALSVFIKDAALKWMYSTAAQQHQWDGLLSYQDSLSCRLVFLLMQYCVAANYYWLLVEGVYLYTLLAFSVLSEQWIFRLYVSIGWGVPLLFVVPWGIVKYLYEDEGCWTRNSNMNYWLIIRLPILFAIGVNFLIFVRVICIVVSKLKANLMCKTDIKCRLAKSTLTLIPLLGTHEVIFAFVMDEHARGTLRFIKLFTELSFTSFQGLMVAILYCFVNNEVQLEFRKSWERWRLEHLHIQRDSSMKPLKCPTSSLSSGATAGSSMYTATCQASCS

In the case of `CC[C@H](C)[C@H](NC(=O)[C@H](Cc1ccccc1)NC(=O)[C@H](CCC(=O)O)NC(=O)[C@H](CC(=O)N[C@@H]1O[C@H](CO)[C@@H](O[C@@H]2O[C@H](CO)[C@@H](O[C@@H]3O[C@H](CO[C@H]4O[C@H](CO)[C@@H](O)[C@H](O)[C@@H]4O[C@@H]4O[C@H](CO)[C@@H](O[C@@H]5O[C@H](CO[C@]6(C(=O)O)C[C@H](O)[C@@H](NC(C)=O)[C@H]([C@H](O)[C@H](O)CO)O6)[C@H](O)[C@H](O)[C@H]5O)[C@H](O)[C@H]4NC(C)=O)[C@@H](O)[C@H](O[C@H]4O[C@H](CO)[C@@H](O)[C@H](O)[C@@H]4O[C@@H]4O[C@H](CO)[C@@H](O[C@@H]5O[C@H](CO[C@]6(C(=O)O)C[C@H](O)[C@@H](NC(C)=O)[C@H]([C@H](O)[C@H](O)CO)O6)[C@H](O)[C@H](O)[C@H]5O)[C@H](O)[C@H]4NC(C)=O)[C@@H]3O)[C@H](O)[C@H]2NC(C)=O)[C@H](O)[C@H]1NC(C)=O)NC(=O)[C@H](C)NC(=O)[C@H](C)NC(=O)[C@H](CCC(N)=O)NC(=O)CNC(=O)[C@H](CCC(=O)O)NC(=O)[C@H](CC(C)C)NC(=O)[C@H](Cc1ccc(O)cc1)NC(=O)[C@H](CO)NC(=O)[C@H](CO)NC(=O)[C@@H](NC(=O)[C@H](CC(=O)O)NC(=O)[C@H](CO)NC(=O)[C@@H](NC(=O)[C@H](Cc1ccccc1)NC(=O)[C@@H](NC(=O)CNC(=O)[C@H](CCC(=O)O)NC(=O)[C@H](C)NC(=O)[C@@H](N)Cc1c[nH]cn1)[C@@H](C)O)[C@@H](C)O)C(C)C)C(=O)N[C@@H](C)C(=O)N[C@@H](Cc1c[nH]c2ccccc12)C(=O)N[C@@H](CC(C)C)C(=O)N[C@H](C(=O)N[C@@H](CCCCN)C(=O)NCC(=O)N[C@@H](CCCNC(=N)N)C(N)=O)C(C)C` [GL26NE1], the pEC50 on GLP-1 receptor [1] was 9.10. This compound also gave a pIC50 against GLP-1 receptor [2] of 7.96.
`CC[C@H](C)[C@H](NC(=O)[C@H](Cc1ccccc1)NC(=O)[C@H](CCC(=O)O)NC(=O)[C@H](CC(=O)N[C@@H]1O[C@H](CO)[C@@H](O[C@@H]2O[C@H](CO[C@]3(C(=O)O)C[C@H](O)[C@@H](NC(C)=O)[C@H]([C@H](O)[C@H](O)CO)O3)[C@H](O)[C@H](O)[C@H]2O)[C@H](O)[C@H]1NC(C)=O)NC(=O)[C@H](C)NC(=O)[C@H](C)NC(=O)[C@H](CCC(N)=O)NC(=O)CNC(=O)[C@H](CCC(=O)O)NC(=O)[C@H](CC(C)C)NC(=O)[C@H](Cc1ccc(O)cc1)NC(=O)[C@H](CO)NC(=O)[C@H](CO)NC(=O)[C@@H](NC(=O)[C@H](CC(=O)O)NC(=O)[C@H](CO)NC(=O)[C@@H](NC(=O)[C@H](Cc1ccccc1)NC(=O)[C@@H](NC(=O)CNC(=O)[C@H](CCC(=O)O)NC(=O)[C@H](C)NC(=O)[C@@H](N)Cc1c[nH]cn1)[C@@H](C)O)[C@@H](C)O)C(C)C)C(=O)N[C@@H](C)C(=O)N[C@@H](Cc1c[nH]c2ccccc12)C(=O)N[C@@H](CC(C)C)C(=O)N[C@H](C(=O)N[C@@H](CCCCN)C(=O)NCC(=O)N[C@@H](CCCNC(=N)N)C(N)=O)C(C)C` [GL26NS6] gave a negative-log EC50 (pEC50) on GLP-1 receptor [1] of 9.04. At GLP-1 receptor [2], this compound gave a negative logarithm of the IC50 (pIC50) of 8.54.
Turning to “H-HAEGTFTSDVSSNLEGQAAKEFIAWLVKGR-NH2 [GL19N]”, the pEC50 on GLP-1 receptor [1] was 9.04. In addition, on GLP-1 receptor [2], the pIC50 is 7.96.
In turn, `CC[C@H](C)[C@H](NC(=O)[C@H](Cc1ccccc1)NC(=O)[C@H](CS)NC(=O)[C@H](CCCNC(=N)N)NC(=O)[C@@H](NC(=O)[C@H](C)NC(=O)[C@H](CCC(=O)O)NC(=O)[C@H](CCC(=O)O)NC(=O)[C@H](CCC(=O)O)NC(=O)[C@H](CCSC)NC(=O)[C@H](CCC(N)=O)NC(=O)[C@H](CCCCN)NC(=O)[C@H](CO)NC(=O)[C@H](CC(C)C)NC(=O)[C@H](CC(=O)O)NC(=O)[C@H](CO)NC(=O)[C@@H](NC(=O)[C@H](Cc1ccccc1)NC(=O)[C@@H](NC(=O)CNC(=O)[C@H](CCC(=O)O)NC(=O)CNC(=O)[C@@H](N)Cc1c[nH]cn1)[C@@H](C)O)[C@@H](C)O)C(C)C)C(=O)N[C@@H](CCC(=O)O)C(=O)N[C@@H](Cc1c[nH]c2ccccc12)C(=O)N[C@@H](CC(C)C)C(=O)N[C@@H](CCCCN)C(=O)N[C@@H](CS)C(=O)NCC(=O)NCC(=O)N1CCC[C@H]1C(=O)N[C@@H](CO)C(=O)N[C@@H](CO)C(=O)NCC(=O)N[C@@H](CS)C(=O)N1CCC[C@H]1C(=O)N1CCC[C@H]1C(=O)N1CCC[C@H]1C(=O)N[C@@H](CO)C(=O)N[C@@H](CS)C(N)=O` [EX21283540C] showed a pEC50 at GLP-1 receptor [1] of 10.26.
`CC[C@H](C)[C@H](NC(=O)[C@H](Cc1ccccc1)NC(=O)[C@H](CCC(=O)O)NC(=O)[C@H](CCCCN)NC(=O)[C@H](C)NC(=O)[C@H](C)NC(=O)[C@H](CCC(N)=O)NC(=O)CNC(=O)[C@H](CCC(=O)O)NC(=O)[C@H](CC(C)C)NC(=O)[C@H](Cc1ccc(O)cc1)NC(=O)[C@H](CO)NC(=O)[C@H](CO)NC(=O)[C@@H](NC(=O)[C@H](CC(=O)O)NC(=O)[C@H](CO)NC(=O)[C@@H](NC(=O)[C@H](Cc1ccccc1)NC(=O)[C@@H](NC(=O)CNC(=O)[C@H](CCC(=O)O)NC(=O)[C@H](CC(=O)N[C@@H]1O[C@H](CO)[C@@H](O[C@@H]2O[C@H](CO)[C@H](O)[C@H](O)[C@H]2O)[C@H](O)[C@H]1NC(C)=O)NC(=O)[C@@H](N)Cc1c[nH]cn1)[C@@H](C)O)[C@@H](C)O)C(C)C)C(=O)N[C@@H](C)C(=O)N[C@@H](Cc1c[nH]c2ccccc12)C(=O)N[C@@H](CC(C)C)C(=O)N[C@H](C(=O)N[C@@H](CCCCN)C(=O)NCC(=O)N[C@@H](CCCNC(=N)N)C(N)=O)C(C)C` [GL08NL] showed a pEC50 at GLP-1 receptor [1] of 6.55. In addition, the negative-log IC50 (pIC50) against GLP-1 receptor [2] was less than 7.00.
As to `CC[C@H](C)[C@H](NC(=O)[C@H](Cc1ccccc1)NC(=O)[C@H](CCC(=O)O)NC(=O)[C@H](CC(=O)N[C@@H]1O[C@H](CO)[C@@H](O[C@@H]2O[C@H](CO)[C@H](O)[C@H](O)[C@H]2O)[C@H](O)[C@H]1NC(C)=O)NC(=O)[C@H](C)NC(=O)[C@H](C)NC(=O)[C@H](CCC(N)=O)NC(=O)CNC(=O)[C@H](CCC(=O)O)NC(=O)[C@H](CC(C)C)NC(=O)[C@H](Cc1ccc(O)cc1)NC(=O)[C@H](CO)NC(=O)[C@H](CO)NC(=O)[C@@H](NC(=O)[C@H](CC(=O)O)NC(=O)[C@H](CO)NC(=O)[C@@H](NC(=O)[C@H](Cc1ccccc1)NC(=O)[C@@H](NC(=O)CNC(=O)[C@H](CCC(=O)O)NC(=O)[C@H](C)NC(=O)[C@@H](N)Cc1c[nH]cn1)[C@@H](C)O)[C@@H](C)O)C(C)C)C(=O)N[C@@H](C)C(=O)N[C@@H](Cc1c[nH]c2ccccc12)C(=O)N[C@@H](CC(C)C)C(=O)N[C@H](C(=O)N[C@@H](CCCCN)C(=O)NCC(=O)N[C@@H](CCCNC(=N)N)C(N)=O)C(C)C` [GL26NL], the negative logarithm of the EC50 (pEC50) on GLP-1 receptor [1] is 9.48. For the same compound, the negative logarithm of the IC50 (pIC50) on GLP-1 receptor [2] was 8.70.
`CC[C@H](C)[C@H](NC(=O)[C@H](Cc1ccccc1)NC(=O)[C@H](CCC(=O)O)NC(=O)[C@H](CCCCN)NC(=O)[C@H](C)NC(=O)[C@H](C)NC(=O)[C@H](CCC(N)=O)NC(=O)CNC(=O)[C@H](CCC(=O)O)NC(=O)[C@H](CC(C)C)NC(=O)[C@H](Cc1ccc(O)cc1)NC(=O)[C@H](CO)NC(=O)[C@H](CO)NC(=O)[C@@H](NC(=O)[C@H](CC(=O)O)NC(=O)[C@H](CO)NC(=O)[C@@H](NC(=O)[C@H](Cc1ccccc1)NC(=O)[C@@H](NC(=O)CNC(=O)[C@H](CCC(=O)O)NC(=O)[C@H](C)NC(=O)[C@@H](N)Cc1c[nH]cn1)[C@@H](C)O)[C@@H](C)O)C(C)C)C(=O)N[C@@H](C)C(=O)N[C@@H](Cc1c[nH]c2ccccc12)C(=O)N[C@@H](CC(C)C)C(=O)N[C@H](C(=O)N[C@@H](CC(=O)N[C@@H]1O[C@H](CO)[C@@H](O[C@@H]2O[C@H](CO)[C@@H](O[C@@H]3O[C@H](CO[C@H]4O[C@H](CO)[C@@H](O)[C@H](O)[C@@H]4O[C@@H]4O[C@H](CO)[C@@H](O[C@@H]5O[C@H](CO[C@]6(C(=O)O)C[C@H](O)[C@@H](NC(C)=O)[C@H]([C@H](O)[C@H](O)CO)O6)[C@H](O)[C@H](O)[C@H]5O)[C@H](O)[C@H]4NC(C)=O)[C@@H](O)[C@H](O[C@H]4O[C@H](CO)[C@@H](O)[C@H](O)[C@@H]4O[C@@H]4O[C@H](CO)[C@@H](O[C@@H]5O[C@H](CO[C@]6(C(=O)O)C[C@H](O)[C@@H](NC(C)=O)[C@H]([C@H](O)[C@H](O)CO)O6)[C@H](O)[C@H](O)[C@H]5O)[C@H](O)[C@H]4NC(C)=O)[C@@H]3O)[C@H](O)[C@H]2NC(C)=O)[C@H](O)[C@H]1NC(C)=O)C(=O)NCC(=O)N[C@@H](CCCNC(=N)N)C(N)=O)C(C)C` [GL34NE1] had a pIC50 against GLP-1 receptor [2] of 8.57.
`CC[C@H](C)[C@H](NC(=O)[C@H](Cc1ccccc1)NC(=O)[C@H](CCC(=O)O)NC(=O)[C@H](CC(N)=O)NC(=O)[C@H](C)NC(=O)[C@H](C)NC(=O)[C@H](CCC(N)=O)NC(=O)CNC(=O)[C@H](CCC(=O)O)NC(=O)[C@H](CC(C)C)NC(=O)[C@H](Cc1ccc(O)cc1)NC(=O)[C@H](CO)NC(=O)[C@H](CO)NC(=O)[C@@H](NC(=O)[C@H](CC(=O)O)NC(=O)[C@H](CO)NC(=O)[C@@H](NC(=O)[C@H](Cc1ccccc1)NC(=O)[C@@H](NC(=O)CNC(=O)[C@H](CCC(=O)O)NC(=O)[C@H](C)NC(=O)[C@@H](N)Cc1c[nH]cn1)[C@@H](C)O)[C@@H](C)O)C(C)C)C(=O)N[C@@H](C)C(=O)N[C@@H](Cc1c[nH]c2ccccc12)C(=O)N[C@@H](CC(C)C)C(=O)N[C@H](C(=O)N[C@@H](CCCCN)C(=O)NCC(=O)N[C@@H](CCCNC(=N)N)C(N)=O)C(C)C` [GL26N] gave a negative-log EC50 (pEC50) on GLP-1 receptor [1] of 10.05.
Consider `CC[C@H](C)[C@H](NC(=O)[C@H](Cc1ccccc1)NC(=O)[C@H](CCC(=O)O)NC(=O)[C@H](CCCCN)NC(=O)[C@H](C)NC(=O)[C@H](C)NC(=O)[C@H](CCC(N)=O)NC(=O)CNC(=O)[C@H](CCC(=O)O)NC(=O)[C@H](CC(C)C)NC(=O)[C@H](Cc1ccc(O)cc1)NC(=O)[C@H](CO)NC(=O)[C@H](CO)NC(=O)[C@@H](NC(=O)[C@H](CC(=O)O)NC(=O)[C@H](CO)NC(=O)[C@@H](NC(=O)[C@H](Cc1ccccc1)NC(=O)[C@@H](NC(=O)CNC(=O)[C@H](CCC(=O)O)NC(=O)[C@H](C)NC(=O)[C@@H](N)Cc1c[nH]cn1)[C@@H](C)O)[C@@H](C)O)C(C)C)C(=O)N[C@@H](C)C(=O)N[C@@H](Cc1c[nH]c2ccccc12)C(=O)N[C@@H](CC(C)C)C(=O)N[C@H](C(=O)N[C@@H](CC(=O)N[C@@H]1O[C@H](CO)[C@@H](O[C@@H]2O[C@H](CO[C@]3(C(=O)O)C[C@H](O)[C@@H](NC(C)=O)[C@H]([C@H](O)[C@H](O)CO)O3)[C@H](O)[C@H](O)[C@H]2O)[C@H](O)[C@H]1NC(C)=O)C(=O)NCC(=O)N[C@@H](CCCNC(=N)N)C(N)=O)C(C)C` [GL34NS6], for which the negative logarithm of the IC50 (pIC50) against GLP-1 receptor [2] is 9.15.

As usually defined, the pEC50 is the negative decadic logarithm of the EC50, by convention in mol/L. Higher therefore signals a low EC50. As usually defined, the pIC50 is −log10 of the IC50, conventionally taken in molar units. Low values mean a high IC50, high ones a low IC50.
